Data: PMC12627933, “A First-In-Human Study of the SUMOylation Inhibitor Subasumstat in Patients with Advanced/Metastatic Solid Tumors or Relapsed/Refractory Hematologic Malignancies” (Cancer Research Communications, 2025)
Several values for one entry are separate records, joined by “and”; a condition that tells them apart may be missing. Identical values can stand only once.

Assay: Safety: treatment-emergent adverse events (NCI CTCAE v5.0; CRS per ASTCT), phase I/II study NCT03648372
Assay type: in vivo
Procedure: This study comprised two parts: a phase I dose escalation and a phase II dose expansion (Fig. 1). In the dose-escalation phase, patients were enrolled to receive subasumstat intravenously as a 1-hour (±10 minutes) infusion on days 1, 4, 8, and 11 of a 21-day cycle (biweekly schedule). […] Dose escalation was based on cohort with an adaptive design using Bayesian logistic regression modeling with overdose control. The starting dose of subasumstat was based on Good Laboratory Practice animal toxicity studies and supported by the estimation of a minimum anticipated biologically effective level. A detailed description of dose-limiting toxicities (DLT) is presented in the Supplementary Methods.
The phase II dose-expansion portion enrolled patients to receive the recommended phase II dose (RP2D) determined in phase I, with each cohort assessed separately using an adaptive two-stage design for a single proportion (see Supplementary Methods). For stage 1, each cohort was analyzed when a prespecified number of patients were enrolled and had the potential to have at least one posttreatment scan [i.e., after the first disease assessment, 2 months from cycle 1 day 1 (C1D1)]. If the prespecified minimal response rate was not achieved in the first stage for a given cohort, that cohort would be closed to enrollment. […] The final analysis of the primary endpoints for each cohort would take place when all ongoing patients had the opportunity to complete the 6-month disease assessment. Across both phases, patients received subasumstat for up to 1 year or until confirmed disease progression, unacceptable toxicity, if any withdrawal criterion from the study was met, or if discontinuation of subasumstat occurred.
The occurrence of DLTs was assessed during cycle 1 (DLTs are described in the Supplementary Methods). Treatment-emergent adverse events (TEAE) were graded according to NCI Common Terminology Criteria for Adverse Events version 5.0, except for cytokine release syndrome (CRS), which was graded according to the American Society for Transplantation and Cellular Therapy Consensus Grading for CRS ([20]).
It was anticipated that approximately 70 DLT-evaluable patients would be enrolled for dose escalation. The safety analysis set included all patients who received at least one dose, even if incomplete, of subasumstat. […] The overall response rate (ORR) was defined as the proportion of patients who achieved complete response and partial response (PR) during the study. The disease control rate (DCR) was defined as the proportion of patients who achieved […] as per RECIST v1.1 for solid tumors or Lugano classification for lymphomas. […] Progression-free survival was summarized descriptively using the Kaplan–Meier method.

Cc1sc(C(=O)c2cncnc2N[C@@H]2C[C@H](COS(N)(=O)=O)[C@@H](O)C2)cc1[C@@H]1NCCc2ccc(Cl)cc21 [subasumstat]
TEAE: Constipation (Total (N = 109)): 16 (14.7) n (%) | TEAE: Decreased appetite (Total (N = 109)): 31 (28.4) n (%) | TEAE: Dehydration (Total (N = 109)): 12 (11.0) n (%) | TEAE: Diarrhea (Total (N = 109)): 39 (35.8) n (%) | TEAE: Dyspnea (Total (N = 109)): 26 (23.9) n (%) | TEAE: Fatigue (Total (N = 109)): 51 (46.8) n (%) | TEAE: Headache (Total (N = 109)): 37 (33.9) n (%) | TEAE: Hypophosphatemia (Total (N = 109)): 11 (10.1) n (%) | TEAE: Insomnia (Total (N = 109)): 13 (11.9) n (%) | TEAE: Nausea (Total (N = 109)): 45 (41.3) n (%) | TEAE: Peripheral edema (Total (N = 109)): 17 (15.6) n (%) | TEAE: Pleural effusion (Total (N = 109)): 12 (11.0) n (%) | TEAE: Pyrexia (Total (N = 109)): 39 (35.8) n (%) | TEAE: Stomatitis (Total (N = 109)): 11 (10.1) n (%) | TEAE: Vomiting (Total (N = 109)): 29 (26.6) n (%) | TEAEs (Total (N = 109)): 105 (96.3) n (%) | TEAEs leading to discontinuation (Total (N = 109)): 12 (11.0) n (%) | TEAEs leading to discontinuation related to subasumstat (Total (N = 109)): 4 (3.7) n (%) | TEAEs related to subasumstat (Total (N = 109)): 87 (79.8) n (%) | Grade ≥3 subasumstat-related TEAE: Anemia (Total (n = 109)): 4 (3.7) n (%) | Grade ≥3 subasumstat-related TEAE: Aspartate aminotransferase increased (Total (n = 109)): 2 (1.8) n (%) | Grade ≥3 subasumstat-related TEAE: Hypokalemia (Total (n = 109)): 2 (1.8) n (%) | Grade ≥3 subasumstat-related TEAE: Lymphocyte count decreased (Total (n = 109)): 4 (3.7) n (%) | Grade ≥3 subasumstat-related TEAE: Muscular weakness (Total (n = 109)): 2 (1.8) n (%) | Grade ≥3 subasumstat-related TEAE: Neutropenia (Total (n = 109)): 4 (3.7) n (%) | Grade ≥3 subasumstat-related TEAE: Platelet count increased (Total (n = 109)): 3 (2.8) n (%) | Grade ≥3 subasumstat-related TEAE: Pneumonitis (Total (n = 109)): 2 (1.8) n (%) | Grade ≥3 subasumstat-related TEAE: Thrombocytopenia (Total (n = 109)): 2 (1.8) n (%) | Patients with at least one grade ≥3 subasumstat-related TEAE (Total (n = 109)): 29 (26.6) n (%) | Subasumstat-related TEAE: Anemia (Total (n = 109)): 8 (7.3) n (%) | Subasumstat-related TEAE: CRS (Total (n = 109)): 12 (11.0) n (%) | Subasumstat-related TEAE: Chills (Total (n = 109)): 23 (21.1) n (%) | Subasumstat-related TEAE: Decreased appetite (Total (n = 109)): 13 (11.9) n (%) | Subasumstat-related TEAE: Diarrhea (Total (n = 109)): 21 (19.3) n (%) | Subasumstat-related TEAE: Dyspnea (Total (n = 109)): 6 (5.5) n (%) | Subasumstat-related TEAE: Fatigue (Total (n = 109)): 34 (31.2) n (%) | Subasumstat-related TEAE: Headache (Total (n = 109)): 26 (23.9) n (%) | Subasumstat-related TEAE: Hypokalemia (Total (n = 109)): 7 (6.4) n (%) | Subasumstat-related TEAE: IRR (Total (n = 109)): 6 (5.5) n (%) | Subasumstat-related TEAE: Myalgia (Total (n = 109)): 8 (7.3) n (%) | Subasumstat-related TEAE: Nausea (Total (n = 109)): 33 (30.3) n (%) | Subasumstat-related TEAE: Pyrexia (Total (n = 109)): 32 (29.4) n (%) | Subasumstat-related TEAE: Vomiting (Total (n = 109)): 14 (12.8) n (%) | Severity of CRS (all incidences, most nonserious): grade 1 or 2 | Discontinuation of subasumstat due to TEAEs (all patients (N = 109)): 11% | Grade ≥3 TEAE abdominal pain (all patients (N = 109)): 5.5% | Grade ≥3 TEAE anemia (all patients (N = 109)): 12.8% and 13% | Grade ≥3 TEAE hypokalemia (all patients (N = 109)): 6.4% | Grade ≥3 TEAEs (all patients (N = 109)): 60.6% | On-study deaths (all patients (N = 109)): 11.0% | On-study deaths related to subasumstat (all patients (N = 109)): none | Subasumstat-related TEAE fatigue (all patients (N = 109)): 31.2% | Subasumstat-related TEAE nausea (all patients (N = 109)): 30.3% | Subasumstat-related TEAE pyrexia (all patients (N = 109)): 29.4% | Subasumstat-related grade ≥3 TEAEs (all patients (N = 109)): 26.6% | Subasumstat-related grade ≥3 anemia (all patients (N = 109)): 3.7% | Subasumstat-related grade ≥3 decreased lymphocyte blood cell count (all patients (N = 109)): 3.7% | Subasumstat-related grade ≥3 decreased platelet count (all patients (N = 109)): 2.8% | Subasumstat-related grade ≥3 neutropenia (all patients (N = 109)): 3.7% | TEAE diarrhea (all patients (N = 109)): 36% and 35.8% | TEAE fatigue (all patients (N = 109)): 47% and 46.8% | TEAE headache (all patients (N = 109)): 33.9% | TEAE nausea (all patients (N = 109)): 41% and 41.3% | TEAE pyrexia (all patients (N = 109)): 36% and 35.8% | TEAEs related to subasumstat (all patients (N = 109)): 79.8% | CRS (all patients (N = 109), 12 patients, all related to subasumstat): 11% | Infusion-related reactions (IRR) (all patients (N = 109), seven patients): 6.4% and 6% | Severity of IRR (all seven patients with IRR): grade 1 or 2 | Dose from which CRS was observed (in vivo): ≥ 60 mg | IRR deemed related to subasumstat (of seven patients with IRR): six
